Tests used:
Assay in all cases: Bliss excess, mean over the matrix (fraction); higher = more synergy
[1] = system: 639-V (Bladder Carcinoma)
How it was run: (§1)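 Cell lines in DMEM/F12 or RPMI with 10% FBS were plated in 1536-well plates, held 24 hours at 37°C, 5% CO2, then given two-drug dose matrices for 72 hours (DMSO typically 0.2%). Viability was read by CellTiter-Glo 2.0 luminescence and scaled as inhibition from 0 (vehicle wells) to 1 (blank wells). Combination Emax is the second-highest inhibition in the matrix; Bliss excess is observed combination effect minus expected EA + EB − EA·EB, EA and EB being single-agent effects.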

[2] = system: CAPAN-1 (Pancreatic Carcinoma)
How it was run: as §1

[3] = system: EN (Endometrial Carcinoma)
How it was run: as §1

[4] = system: HARA (Squamous Cell Lung Carcinoma)
How it was run: as §1

[5] = system: HMV-II (Melanoma)
How it was run: as §1

[6] = system: HO-1-u-1 (Oral Cavity Carcinoma)
How it was run: as §1

[7] = system: Hs-633T (Other Solid Carcinomas)
How it was run: as §1

[8] = system: KARPAS-231 (B-Cell Non-Hodgkin's Lymphoma)
How it was run: as §1

[9] = system: LB771-HNC (Head and Neck Carcinoma)
How it was run: as §1

[10] = system: LoVo (Colorectal Carcinoma)
How it was run: as §1

[11] = system: NB14 (Neuroblastoma)
How it was run: as §1

[12] = system: NCI-H69 (Small Cell Lung Carcinoma)
How it was run: as §1

[13] = system: NCI-H747 (Colorectal Carcinoma)
How it was run: as §1

[14] = system: OVCAR-8 (Ovarian Carcinoma)
How it was run: as §1

[15] = system: PCI-30 (Head and Neck Carcinoma)
How it was run: as §1

[16] = system: RT-112 (Bladder Carcinoma)
How it was run: as §1

[17] = system: SUP-T1 (T-Lymphoblastic Leukemia)
How it was run: as §1

[18] = system: TE-4 (Esophageal Squamous Cell Carcinoma)
How it was run: as §1

[19] = system: UMC-11 (Other Solid Carcinomas)
How it was run: as §1

[20] = system: MDA-MB-468 (Breast Carcinoma)
How it was run: as §1

| Structure (SMILES) | Bliss excess [1] | Bliss excess [2] | Bliss excess [3] | Bliss excess [4] | Bliss excess [5] | Bliss excess [6] | Bliss excess [7] | Bliss excess [8] | Bliss excess [9] | Bliss excess [10] | Bliss excess [11] | Bliss excess [12] | Bliss excess [13] | Bliss excess [14] | Bliss excess [15] | Bliss excess [16] | Bliss excess [17] | Bliss excess [18] | Bliss excess [19] | Bliss excess [20] |
| --- | --- | --- | --- | --- | --- | --- | --- | --- | --- | --- | --- | --- | --- | --- | --- | --- | --- | --- | --- | --- |
| Cn1cnc2c(F)c(Nc3ccc(Br)cc3Cl)c(C(=O)NOCCO)cc21 [Selumetinib] + C[C@@H]1COCCN1C2=NC(=NC(=C2)C3(CC3)[S@](=N)(=O)C)C4=C5C=CNC5=NC=C4 [AZD6738] (first compound max 10 µM, 7x7, partner max 10 µM) | 0.0585 | 0.0147 | -0.0228 | -0.0115 | -0.0384 | 0.014 | -0.0012 | 0.0287 | -0.0532 | -0.0381 | -0.0232 | -0.0686 | 0.002 | -0.0197 | -0.0327 | -0.0088 | -0.0747 | -0.0063 | 0.0001 | – |
| COc1cc2ncnc(Nc3ccc(F)c(Cl)c3)c2cc1OCCCN1CCOCC1 [Gefitinib] + CC(C)n1c(=O)n(C)c2cnc3cc(F)c(-c4ccc(OCCCN5CCCCC5)nc4)cc3c21 [AZD1390] (first compound max 10 µM, 7x7, partner max 0.3 µM) | -0.0765 | -0.0286 | -0.0318 | -0.0343 | -0.0442 | -0.0212 | -0.0684 | -0.0423 | -0.0648 | -0.0418 | -0.0145 | -0.0122 | -0.0986 | -0.0633 | -0.0871 | -0.0548 | -0.0389 | -0.0286 | -0.0399 | – |
| CS(=O)(=O)CCNCc1ccc(-c2ccc3ncnc(Nc4ccc(OCc5cccc(F)c5)c(Cl)c4)c3c2)o1 [Lapatinib] + Cn1cnc2c(F)c(Nc3ccc(Br)cc3Cl)c(C(=O)NOCCO)cc21 [Selumetinib] (first compound max 10 µM, 7x7, partner max 10 µM) | – | -0.0664 | -0.0829 | -0.0257 | -0.141 | -0.0047 | 0.026 | – | – | 0.0361 | 0.0397 | -0.0384 | – | – | 0.0027 | 0.0134 | -0.0679 | – | – | -0.0835 |
| COc1nnc2ccc(N3CCC(c4ccc(OCCN5CCN(C)C(=O)[C@H]5C)cc4)CC3)nn12 [AZD5153] + CCN(CCO)CCCOc1ccc2c(Nc3cc(CC(=O)Nc4cccc(F)c4)[nH]n3)ncnc2c1 [AZD2811] (first compound max 1 µM, 7x7, partner max 1 µM) | -0.063 | -0.08 | -0.0918 | -0.0548 | -0.0481 | -0.121 | -0.0285 | -0.203 | -0.0006 | -0.0623 | -0.0546 | 0.0048 | -0.0623 | -0.0131 | -0.0568 | -0.0595 | 0.0027 | -0.0116 | -0.123 | – |
| C[C@@H](c1ccc2nccn2c1)n1nnc2ncc(-c3cnn(C)c3)nc21 [Savolitinib] + CC1(C)CCC(CN2CCN(c3ccc(C(=O)NS(=O)(=O)c4ccc(NCC5CCOCC5)c([N+](=O)[O-])c4)c(Oc4cnc5[nH]ccc5c4)c3)CC2)=C(c2ccc(Cl)cc2)C1 [Venetoclax] (first compound max 1 µM, 7x7, partner max 1 µM) | -0.112 | -0.0613 | -0.0643 | -0.031 | -0.0621 | -0.039 | -0.0383 | -0.0344 | -0.0912 | -0.0394 | -0.0082 | -0.0144 | -0.0817 | -0.035 | -0.0899 | -0.046 | -0.0456 | -0.009 | -0.0303 | – |
| Cc1nc(-c2cn3c(n2)-c2ccc(-c4cnn(C(C)(C)C(N)=O)c4)cc2OCC3)n(C(C)C)n1 [Taselisib] + O=C(Nc1ccc2[nH]nc(-c3ccncc3)c2c1)[C@@H]1CCN(CC(=O)N2CCN(c3ccc(-c4ncccn4)cc3)CC2)C1 [SCH772984] (first compound max 10 µM, 7x7, partner max 5 µM) | – | 0.0449 | -0.034 | 0.0577 | 0.0285 | 0.0064 | 0.0891 | – | – | -0.0284 | 0.192 | 0.0251 | – | – | 0.023 | 0.108 | 0.0502 | – | – | -0.003 |
| CCc1c2c(nc3ccc(O)cc13)-c1cc3c(c(=O)n1C2)COC(=O)[C@]3(O)CC [SN-38] + O=C(c1cc(Cc2n[nH]c(=O)c3ccccc23)ccc1F)N1CCN(C(=O)C2CC2)CC1 [Olaparib] (first compound max 0.3 µM, 7x7, partner max 10 µM) | 0.0917 | 0.0168 | -0.0377 | 0.124 | 0.0175 | 0.0415 | 0.17 | 0.113 | -0.0181 | 0.0556 | 0.0063 | -0.0035 | 0.0512 | – | 0.0572 | 0.116 | 0.0435 | -0.0103 | 0.035 | 0.0941 |
| CS(=O)(=O)CCNCc1ccc(-c2ccc3ncnc(Nc4ccc(OCc5cccc(F)c5)c(Cl)c4)c3c2)o1 [Lapatinib] + NC1(c2ccc(-c3nc4ccn5c(=O)[nH]nc5c4cc3-c3ccccc3)cc2)CCC1 [MK-2206] (first compound max 10 µM, 7x7, partner max 10 µM) | – | -0.016 | -0.0024 | 0.086 | -0.0337 | 0.0235 | 0.0256 | – | – | 0.0841 | 0.0136 | 0.0389 | -0.126 | – | -0.0005 | 0.0746 | -0.0215 | – | – | 0.0008 |
